Patent US10259810B2, “N-sulfonylated pyrazolo[3,4-b]pyridin-6-carboxamides and method of use” (AbbVie S.à.r.l., priority 2015, dated 2019)
Where two headings read alike, the source gives them in different places.

Columns and labels:
Type in all cases: cell-based
[1] = molecular target: T1, ΔF508-CFTR (Homo sapiens, UniProt P13569, DEL508-508); test: CFTR cell surface levels using HRP-tagged ΔF508-CFTR expressing CFBE cells, in the presence of a co-corrector; settings: HRP-tagged ΔF508-CFTR CFBE cells, in the presence of 3 μM co-corrector; for EC50: read-out: EC50
T1 construct: host or cells: CFBE41o-, doxycycline-inducible
T1 sequence (P13569 with tags, fused parts or gaps DEL508-508): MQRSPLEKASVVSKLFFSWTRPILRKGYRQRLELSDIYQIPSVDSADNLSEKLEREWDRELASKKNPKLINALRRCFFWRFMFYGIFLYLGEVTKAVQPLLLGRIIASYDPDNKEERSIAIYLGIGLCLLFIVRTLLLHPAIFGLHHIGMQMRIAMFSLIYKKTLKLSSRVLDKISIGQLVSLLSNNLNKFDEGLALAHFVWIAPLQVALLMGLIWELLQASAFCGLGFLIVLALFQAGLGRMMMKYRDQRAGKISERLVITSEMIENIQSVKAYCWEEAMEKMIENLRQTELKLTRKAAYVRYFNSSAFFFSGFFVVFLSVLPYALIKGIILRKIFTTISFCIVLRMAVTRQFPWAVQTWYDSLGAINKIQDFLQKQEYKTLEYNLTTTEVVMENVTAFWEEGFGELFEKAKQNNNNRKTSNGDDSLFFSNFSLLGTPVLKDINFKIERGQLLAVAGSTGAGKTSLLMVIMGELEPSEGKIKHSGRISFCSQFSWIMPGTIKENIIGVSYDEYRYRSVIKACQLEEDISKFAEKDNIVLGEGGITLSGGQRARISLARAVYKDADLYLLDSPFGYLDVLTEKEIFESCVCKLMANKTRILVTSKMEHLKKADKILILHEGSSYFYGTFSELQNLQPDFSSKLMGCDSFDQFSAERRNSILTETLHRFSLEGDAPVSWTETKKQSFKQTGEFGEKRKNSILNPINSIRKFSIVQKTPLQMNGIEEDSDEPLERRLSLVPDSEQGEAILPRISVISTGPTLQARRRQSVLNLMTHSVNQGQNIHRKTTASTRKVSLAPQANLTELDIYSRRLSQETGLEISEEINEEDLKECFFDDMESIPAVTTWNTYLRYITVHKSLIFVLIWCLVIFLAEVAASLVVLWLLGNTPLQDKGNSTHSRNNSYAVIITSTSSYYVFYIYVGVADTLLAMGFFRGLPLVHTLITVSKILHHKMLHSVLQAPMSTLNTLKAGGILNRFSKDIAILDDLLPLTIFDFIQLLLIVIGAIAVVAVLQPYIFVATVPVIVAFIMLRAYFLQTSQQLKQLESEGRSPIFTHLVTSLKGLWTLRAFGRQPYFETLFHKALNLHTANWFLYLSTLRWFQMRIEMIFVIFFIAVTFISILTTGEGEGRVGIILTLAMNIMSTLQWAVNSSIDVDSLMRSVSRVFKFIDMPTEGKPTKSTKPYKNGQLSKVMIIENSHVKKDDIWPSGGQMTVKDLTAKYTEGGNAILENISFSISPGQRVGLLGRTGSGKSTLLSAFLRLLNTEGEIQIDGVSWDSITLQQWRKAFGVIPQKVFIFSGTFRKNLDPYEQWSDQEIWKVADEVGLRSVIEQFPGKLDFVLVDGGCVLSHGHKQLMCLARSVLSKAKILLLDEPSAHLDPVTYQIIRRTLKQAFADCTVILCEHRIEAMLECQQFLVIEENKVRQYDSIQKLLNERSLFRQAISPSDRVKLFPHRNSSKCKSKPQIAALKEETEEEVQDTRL
Summary of the method: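 Chemiluminescent read-out of surface HRP (15 min, dark) after PBS washes. Activity is normalized as 100×(sample−DMSO)/(3 μM co-corrector alone−DMSO).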

[2] = molecular target: T2, CFTR ΔF508 (Homo sapiens, UniProt P13569, DEL508-508); test: Chronic TECC assay, primary bronchial epithelial cells of CF patients homozygous for CFTR ΔF508 (corrector, co-corrector and potentiator); settings: chronic TECC; for % Activity at 1 μM (AUC**) / % Activity at 1 μM (Ieq*): test compound at 1 μM
T2 construct: bronchial epithelial cells isolated from CF patients homozygous for the CFTR ΔF508 mutation; McGill University; Asterand; University of North Carolina hAEC-CF; host or cells: primary human bronchial epithelial cells from CF patients homozygous for ΔF508, differentiated at air-liquid interface
T2 sequence (P13569 with tags, fused parts or gaps DEL508-508): as above
Summary of the method: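 Primary bronchial epithelial cells from ΔF508-homozygous CF patients on collagen IV-coated Transwells were chronically treated with test compound plus corrector and potentiator, which were re-added before recording. Ieq was derived from PD and Rt in NaCl-Ringer, pH 7.4, at 37° C, with apical amiloride and bilateral forskolin, recorded every 2 min over 20 min. Ieq increase was normalized to controls, and EC50 was taken from per-well concentrations.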

[3] = molecular target: T1, ΔF508-CFTR; test: CFTR cell surface levels using HRP-tagged ΔF508-CFTR expressing CFBE cells, intrinsic corrector capacity; design: % Activation: concentration or dose not given beside the values; settings: HRP-tagged ΔF508-CFTR expressing CFBE41o- cells, compound alone (intrinsic corrector capacity), 20 hours at 33° C.; for EC50: read-out: EC50
Summary of the method: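 Read-out: chemiluminescent HRP activity of ECL4-HRP-tagged ΔF508-CFTR at the cell surface, 15 min substrate in dark. Normalized as 100×(sample−DMSO)/(positive control−DMSO).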

[4] = AUC = full area under the curve upon forskolin stimulation
[5] = AUC = full area under the curve upon forskolin stimulation, read-out: EC50 (nM) (AUC**)
[6] = Ieq = calculations based on the maximum current, read-out: EC50 (nM) (Ieq*)
[7] = Ieq = calculations based on the maximum current

SMILES	% Activation [1] [%]	EC50 [1] [nM]	% Activity at 1 μM (AUC**) [2, 4] [%]	% Activation [3] [%]	EC50 [3] [nM]	EC50 [2, 5] [nM]	% Activity at 3 μM (AUC**) ([2]; test compound at 3 μM, AUC = full area under the curve upon forskolin stimulation) [%]	EC50 [2, 6] [nM]	% Activity at 1 μM (Ieq*) [2, 7] [%]
CN(C(=O)c1cc(N2CCC(N3CCOCC3)CC2)c2c(C3CCC3)nn(-c3ccc(F)cc3)c2n1)S(C)(=O)=O [Compound 654, 3-cyclobutyl-1-(4-fluorophenyl)-N-(methanesulfonyl)-N-methyl-4-[4-(morpholin-4-yl)piperidin-1-yl]-1H-pyrazolo[3,4-b]pyridine-6-carboxamide]	347.6	114	293.3333	73.925	5080	–	–	–	–
CN(C)S(=O)(=O)NC(=O)c1cc(N2CCC(N3CCOC(C#N)C3)CC2)c2c(C3CCC3)nn(-c3ccc(F)cc3)c2n1 (stereo not shown) [Compound 527, 4-[4-(2-cyanomorpholin-4-yl)piperidin-1-yl]-3-cyclobutyl-N-(dimethylsulfamoyl)-1-(4-fluorophenyl)-1H-pyrazolo[3,4-b]pyridine-6-carboxamide]	500	53.8	370.693	295.95	79.1	–	–	–	–
O=C(NS(=O)(=O)N1CCOCC1)c1cc(N2CCC(N3CCOCC3)CC2)c2c(C3CCC3)nn(-c3ccc(F)cc3)c2n1 [Compound 487, 3-cyclobutyl-1-(4-fluorophenyl)-N-(morpholine-4-sulfonyl)-4-[4-(morpholin-4-yl)piperidin-1-yl]-1H-pyrazolo[3,4-b]pyridine-6-carboxamide]	404.63	69	340	203.53	175	–	–	–	–
CN(C)S(=O)(=O)NC(=O)c1cc(N2CCC(N3CCC(C#N)CC3)CC2)c2c(C3CCC3)nn(-c3ccc(F)cc3)c2n1 [Compound 522, 4-(4-cyano[1,4'-bipiperidin]-1'-yl)-3-cyclobutyl-N-(dimethylsulfamoyl)-1-(4-fluorophenyl)-1H-pyrazolo[3,4-b]pyridine-6-carboxamide]	525.66	79.8	666.6667	317.9	114	21.9	–	–	–
COC(C)C1CCN(c2cc(C(=O)NS(C)(=O)=O)nc3c2c(C2CCC2)nn3-c2ccccc2)CC1 (stereo not shown) [Compound 241, 3-cyclobutyl-N-(methanesulfonyl)-4-[4-(1-methoxyethyl)piperidin-1-yl]-1-phenyl-1H-pyrazolo[3,4-b]pyridine-6-carboxamide]	488.15	82.2	400	261.93	366	< 10	–	–	–
COCCS(=O)(=O)NC(=O)c1cc(N2CCC(N3CCOCC3)CC2)c2c(C3CCC3)nn(-c3ccc(F)cc3)c2n1 [Compound 407, 3-cyclobutyl-1-(4-fluorophenyl)-N-(2-methoxyethanesulfonyl)-4-[4-(morpholin-4-yl)piperidin-1-yl]-1H-pyrazolo[3,4-b]pyridine-6-carboxamide]	494.15	124	310	331.45	497	48.9	–	–	–
COCC1CCN(c2cc(C(=O)NS(C)(=O)=O)nc3c2c(C2CCC2)nn3-c2ccc(F)cc2)CC1 [Compound 316, 3-cyclobutyl-1-(4-fluorophenyl)-N-(methanesulfonyl)-4-[4-(methoxymethyl)piperidin-1-yl]-1H-pyrazolo[3,4-b]pyridine-6-carboxamide]	555.55	24.4	452.88	380.5	183	45	–	–	–
CN(C)S(=O)(=O)NC(=O)c1cc(N2CCC(N3CCOCC3)CC2)c2c(C3CCC3)nn(C3CCCCC3)c2n1 [Compound 420, 3-cyclobutyl-1-cyclohexyl-N-(dimethylsulfamoyl)-4-[4-(morpholin-4-yl)piperidin-1-yl]-1H-pyrazolo[3,4-b]pyridine-6-carboxamide]	486.65	209	223.3333	283.1	472	–	–	–	–
COCCS(=O)(=O)NC(=O)c1cc(N2CCC(COC)CC2)c2c(C(C)C)nn(CC3CCC3)c2n1 [Compound 263, 1-(cyclobutylmethyl)-N-(2-methoxyethanesulfonyl)-4-[4-(methoxymethyl)piperidin-1-yl]-3-(propan-2-yl)-1H-pyrazolo[3,4-b]pyridine-6-carboxamide]	475.45	404	399.85	260.1	445	77	–	–	–
CS(=O)(=O)NC(=O)c1cc(OC[C@@H](F)C2CCOCC2)c2c(C3CCC3)nn(-c3ccccc3)c2n1 [Compound 199, 3-cyclobutyl-4-[(2S)-2-fluoro-2-(oxan-4-yl)ethoxy]-N-(methanesulfonyl)-1-phenyl-1H-pyrazolo[3,4-b]pyridine-6-carboxamide]	304.63	316	627.48	142.6	481	> 1000	–	–	–
COCC1CCN(c2cc(C(=O)NS(C)(=O)=O)nc3c2c(C2CCC2)nn3-c2ccccc2)CC1 [Compound 185, 3-cyclobutyl-N-(methanesulfonyl)-4-[4-(methoxymethyl)piperidin-1-yl]-1-phenyl-1H-pyrazolo[3,4-b]pyridine-6-carboxamide]	546.7	145	–	331.6	241	45.4	–	–	–
CN(C)S(=O)(=O)NC(=O)c1cc(N2CCC(N3CCC(C#N)C3)CC2)c2c(C3CCC3)nn(-c3ccc(F)cc3)c2n1 (stereo not shown) [Compound 561, 4-[4-(3-cyanopyrrolidin-1-yl)piperidin-1-yl]-3-cyclobutyl-N-(dimethylsulfamoyl)-1-(4-fluorophenyl)-1H-pyrazolo[3,4-b]pyridine-6-carboxamide]	509.4	43	620	311.6	107	–	–	–	–
O=C(NS(=O)(=O)N1CCC(F)C1)c1cc(N2CCC(N3CCOCC3)CC2)c2c(C3CCC3)nn(-c3ccc(F)cc3)c2n1 (stereo not shown) [Compound 537, 3-cyclobutyl-1-(4-fluorophenyl)-N-(3-fluoropyrrolidine-1-sulfonyl)-4-[4-(morpholin-4-yl)piperidin-1-yl]-1H-pyrazolo[3,4-b]pyridine-6-carboxamide]	417.1	50.8	–	214.5	112	–	261.5724	–	–
CS(=O)(=O)NC(=O)c1cc(OCC2CCC(F)(F)C2)c2c(C3CCC3)nn(-c3ccccc3)c2n1 (stereo not shown) [Compound 238, 3-cyclobutyl-4-[(3,3-difluorocyclopentyl)methoxy]-N-(methanesulfonyl)-1-phenyl-1H-pyrazolo[3,4-b]pyridine-6-carboxamide]	347.55	219	521.96	159.83	601	–	–	–	–
CCS(=O)(=O)NC(=O)c1cc(-c2cnc(N(C)C)nc2)c2c(C(C)C)nn(-c3cccc(N4CCOCC4)c3)c2n1 [Compound 30, 4-[2-(dimethylamino)pyrimidin-5-yl]-N-(ethanesulfonyl)-1-[3-(morpholin-4-yl)phenyl]-3-(propan-2-yl)-1H-pyrazolo[3,4-b]pyridine-6-carboxamide]	580.97	215	–	369.93	436	–	–	< 30	450
CS(=O)(=O)NC(=O)c1cc(N2CCC(CN3CCOCC3)CC2)c2c(C3CCC3)nn(-c3ccc(F)cc3)c2n1 [Compound 410, 3-cyclobutyl-1-(4-fluorophenyl)-N-(methanesulfonyl)-4-{4-[(morpholin-4-yl)methyl]piperidin-1-yl}-1H-pyrazolo[3,4-b]pyridine-6-carboxamide]	529.58	82.4	233.3333	337.42	213	1.58	–	–	–
CC(C)c1nn(-c2cccc(N3CCOCC3)c2)c2nc(C(=O)NS(C)(=O)=O)cc(-c3ccc(N4CCC(C#N)CC4)nc3)c12 [Compound 85, 4-[6-(4-cyanopiperidin-1-yl)pyridin-3-yl]-N-(methanesulfonyl)-1-[3-(morpholin-4-yl)phenyl]-3-(propan-2-yl)-1H-pyrazolo[3,4-b]pyridine-6-carboxamide]	570.16	232	–	426.04	421	–	–	> 1000	120
